System: 991263-137-R1-J2-PDC complex spheroid viability
Experiment: Anticancer human tumor 991263-137-R1-J2-PDC patient-derived colon adenocarcinoma cell line growth inhibition [POLQ]
Settings: for IC50: curve of first compound; for viability, T/C: stronger effect = lower value
Outline: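 Three-cell-type spheroids modelling solid tumor plus stroma served as the readout system; POL inhibitors were tested individually and in combination, concentration ranges set by clinical Cmax where known.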
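Note: spheroids exposed to compounds for 7 days before readout.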
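Throughout, for viability, T/C: 100% = DMSO vehicle control viability.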

## C=CCn1c(=O)c2cnc(Nc3ccc(N4CCN(C)CC4)cc3)nc2n1-c1cccc(C(C)(C)O)n1 + Cc1cccc(N(C)C(=O)C2C(O)CCN2c2nc(C)cc(C(F)(F)F)c2C#N)c1
Second compound 0.0316 µM
  IC50: > 1000 nM
Second compound 0.1 µM
  IC50: > 1000 nM
Second compound 0.316 µM
  IC50: > 1000 nM
Second compound 1 µM
  IC50: > 1000 nM
Second compound 3.16 µM
  IC50: > 1000 nM
Second compound 10 µM
  IC50: > 1000 nM
Second compound 0.0316 µM, first compound 0.00316 µM
  viability, T/C: 103%
Second compound 0.0316 µM, first compound 0.01 µM
  viability, T/C: 114%
Second compound 0.0316 µM, first compound 0.0316 µM
  viability, T/C: 103%
Second compound 0.0316 µM, first compound 0.1 µM
  viability, T/C: 115%
Second compound 0.0316 µM, first compound 0.316 µM
  viability, T/C: 101%
Second compound 0.0316 µM, first compound 1 µM
  viability, T/C: 93%
Second compound 0.1 µM, first compound 0.00316 µM
  viability, T/C: 108%
Second compound 0.1 µM, first compound 0.01 µM
  viability, T/C: 110%
Second compound 0.1 µM, first compound 0.0316 µM
  viability, T/C: 107%
Second compound 0.1 µM, first compound 0.1 µM
  viability, T/C: 102%
Second compound 0.1 µM, first compound 0.316 µM
  viability, T/C: 108%
Second compound 0.1 µM, first compound 1 µM
  viability, T/C: 90.1%
Second compound 0.316 µM, first compound 0.00316 µM
  viability, T/C: 115%
Second compound 0.316 µM, first compound 0.01 µM
  viability, T/C: 103%
Second compound 0.316 µM, first compound 0.0316 µM
  viability, T/C: 98.1%
Second compound 0.316 µM, first compound 0.1 µM
  viability, T/C: 119%
Second compound 0.316 µM, first compound 0.316 µM
  viability, T/C: 108%
Second compound 0.316 µM, first compound 1 µM
  viability, T/C: 102%
Second compound 1 µM, first compound 0.00316 µM
  viability, T/C: 99.1%
Second compound 1 µM, first compound 0.01 µM
  viability, T/C: 101%
Second compound 1 µM, first compound 0.0316 µM
  viability, T/C: 96%
Second compound 1 µM, first compound 0.1 µM
  viability, T/C: 97.6%
Second compound 1 µM, first compound 0.316 µM
  viability, T/C: 110%
Second compound 1 µM, first compound 1 µM
  viability, T/C: 94.2%
Second compound 3.16 µM, first compound 0.00316 µM
  viability, T/C: 100%
Second compound 3.16 µM, first compound 0.01 µM
  viability, T/C: 101%
Second compound 3.16 µM, first compound 0.0316 µM
  viability, T/C: 98.4%
Second compound 3.16 µM, first compound 0.1 µM
  viability, T/C: 101%
Second compound 3.16 µM, first compound 0.316 µM
  viability, T/C: 103%
Second compound 3.16 µM, first compound 1 µM
  viability, T/C: 98.3%
Second compound 10 µM, first compound 0.00316 µM
  viability, T/C: 98.8%
Second compound 10 µM, first compound 0.01 µM
  viability, T/C: 110%
Second compound 10 µM, first compound 0.0316 µM
  viability, T/C: 99.5%
Second compound 10 µM, first compound 0.1 µM
  viability, T/C: 106%
Second compound 10 µM, first compound 0.316 µM
  viability, T/C: 105%
Second compound 10 µM, first compound 1 µM
  viability, T/C: 95.2%

— PubChem BioAssay AID1963828 (Molecular Pharmacology Branch, DTP, NCI, 2024)
